Experiments:
mTOR = biological target: T1, mTOR (Homo sapiens, UniProt P42345); assay: mTOR kinobeads assay (competitive binding in Jurkat cell lysate, immunodetection); conditions: kinobeads assay, Table 6; read-out: Inhibition values (IC50) mTOR
T1 construct: endogenous in cells; host or cells: Jurkat, clone E6-1 (ATCC TIB-152) cell lysate
Outline: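 IC50 derived from dose-response curves of mTOR captured on immobilized phenylmorpholin-chromen beads, detected by antibody dot blot with infrared fluorescence.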

PI3Kalpha (PI3Ka) = biological target: T2, PI3Kalpha (PI3Ka) (Homo sapiens, UniProt P42336); assay: kinobeads assay, PI3Kalpha; type: binding; conditions: kinobeads assay, Table 6; for IC50: read-out: Inhibition values (IC50) PI3Ka
T2 construct: endogenous in cells; host or cells: cell lysate
Outline: (§1)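 Competitive binding in cell lysate: test compounds at various concentrations compete with beads carrying an immobilized phenylmorpholin-chromen ligand. Bead-captured kinases are eluted and quantified by multiplexed immunodetection. IC50 values come from dose-response curves for each kinase.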

PI3 Kbeta (PI3 Kb) = biological target: T3, PI3 Kbeta (PI3 Kb) (Homo sapiens, UniProt P42338); assay: kinobeads assay, PI3Kbeta; type: binding; conditions: kinobeads assay, Table 6; read-out: Inhibition values (IC50) PI3Kb
T3 construct: endogenous in cells; host or cells: cell lysate
Outline: as §1

T3 sequence (P42338 whole entry): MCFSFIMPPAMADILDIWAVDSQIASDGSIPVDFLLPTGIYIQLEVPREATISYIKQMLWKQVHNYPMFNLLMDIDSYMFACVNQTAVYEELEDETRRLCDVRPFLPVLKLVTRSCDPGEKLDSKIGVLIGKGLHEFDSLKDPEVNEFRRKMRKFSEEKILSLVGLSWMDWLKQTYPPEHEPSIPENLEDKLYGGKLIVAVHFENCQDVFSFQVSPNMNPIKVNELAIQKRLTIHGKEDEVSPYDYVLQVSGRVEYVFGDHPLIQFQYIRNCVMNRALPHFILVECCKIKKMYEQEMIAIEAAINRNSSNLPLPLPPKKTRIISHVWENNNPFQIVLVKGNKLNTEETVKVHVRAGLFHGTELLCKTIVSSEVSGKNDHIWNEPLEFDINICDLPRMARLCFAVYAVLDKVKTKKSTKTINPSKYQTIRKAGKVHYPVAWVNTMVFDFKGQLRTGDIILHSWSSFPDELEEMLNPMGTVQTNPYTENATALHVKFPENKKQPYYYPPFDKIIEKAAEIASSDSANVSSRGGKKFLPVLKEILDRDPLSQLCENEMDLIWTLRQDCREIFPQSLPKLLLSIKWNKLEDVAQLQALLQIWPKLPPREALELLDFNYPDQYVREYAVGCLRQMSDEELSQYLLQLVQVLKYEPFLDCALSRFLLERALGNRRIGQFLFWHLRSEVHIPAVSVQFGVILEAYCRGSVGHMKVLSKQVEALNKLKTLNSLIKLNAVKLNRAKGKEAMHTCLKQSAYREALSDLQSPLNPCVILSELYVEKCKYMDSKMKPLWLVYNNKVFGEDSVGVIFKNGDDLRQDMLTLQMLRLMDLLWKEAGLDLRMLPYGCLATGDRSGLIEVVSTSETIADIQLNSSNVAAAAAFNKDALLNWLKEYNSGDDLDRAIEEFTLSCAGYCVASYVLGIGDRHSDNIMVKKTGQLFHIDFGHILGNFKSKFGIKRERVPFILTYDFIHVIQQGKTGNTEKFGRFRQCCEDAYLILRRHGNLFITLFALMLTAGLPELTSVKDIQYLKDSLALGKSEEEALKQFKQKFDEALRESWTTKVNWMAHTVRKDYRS
T3 sequence (P27986 whole entry partner): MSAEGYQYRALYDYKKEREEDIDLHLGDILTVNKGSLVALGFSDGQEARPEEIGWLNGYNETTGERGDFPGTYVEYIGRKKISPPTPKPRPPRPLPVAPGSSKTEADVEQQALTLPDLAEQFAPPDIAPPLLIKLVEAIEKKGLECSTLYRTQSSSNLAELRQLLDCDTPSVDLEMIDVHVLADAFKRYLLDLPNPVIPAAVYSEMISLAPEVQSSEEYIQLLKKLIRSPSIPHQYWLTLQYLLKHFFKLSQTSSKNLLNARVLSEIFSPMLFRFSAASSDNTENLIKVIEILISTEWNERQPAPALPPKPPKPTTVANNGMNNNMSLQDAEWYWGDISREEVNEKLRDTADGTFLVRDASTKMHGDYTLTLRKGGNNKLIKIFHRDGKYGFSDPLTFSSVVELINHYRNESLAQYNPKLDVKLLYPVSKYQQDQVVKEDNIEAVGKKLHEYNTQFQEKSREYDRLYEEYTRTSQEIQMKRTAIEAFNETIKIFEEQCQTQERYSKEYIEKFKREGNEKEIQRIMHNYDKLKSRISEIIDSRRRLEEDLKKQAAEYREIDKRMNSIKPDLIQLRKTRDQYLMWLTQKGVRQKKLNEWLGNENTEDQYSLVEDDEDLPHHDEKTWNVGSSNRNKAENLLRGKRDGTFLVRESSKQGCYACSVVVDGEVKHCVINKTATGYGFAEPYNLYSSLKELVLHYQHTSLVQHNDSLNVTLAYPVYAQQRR
T2 sequence (P42336 whole entry): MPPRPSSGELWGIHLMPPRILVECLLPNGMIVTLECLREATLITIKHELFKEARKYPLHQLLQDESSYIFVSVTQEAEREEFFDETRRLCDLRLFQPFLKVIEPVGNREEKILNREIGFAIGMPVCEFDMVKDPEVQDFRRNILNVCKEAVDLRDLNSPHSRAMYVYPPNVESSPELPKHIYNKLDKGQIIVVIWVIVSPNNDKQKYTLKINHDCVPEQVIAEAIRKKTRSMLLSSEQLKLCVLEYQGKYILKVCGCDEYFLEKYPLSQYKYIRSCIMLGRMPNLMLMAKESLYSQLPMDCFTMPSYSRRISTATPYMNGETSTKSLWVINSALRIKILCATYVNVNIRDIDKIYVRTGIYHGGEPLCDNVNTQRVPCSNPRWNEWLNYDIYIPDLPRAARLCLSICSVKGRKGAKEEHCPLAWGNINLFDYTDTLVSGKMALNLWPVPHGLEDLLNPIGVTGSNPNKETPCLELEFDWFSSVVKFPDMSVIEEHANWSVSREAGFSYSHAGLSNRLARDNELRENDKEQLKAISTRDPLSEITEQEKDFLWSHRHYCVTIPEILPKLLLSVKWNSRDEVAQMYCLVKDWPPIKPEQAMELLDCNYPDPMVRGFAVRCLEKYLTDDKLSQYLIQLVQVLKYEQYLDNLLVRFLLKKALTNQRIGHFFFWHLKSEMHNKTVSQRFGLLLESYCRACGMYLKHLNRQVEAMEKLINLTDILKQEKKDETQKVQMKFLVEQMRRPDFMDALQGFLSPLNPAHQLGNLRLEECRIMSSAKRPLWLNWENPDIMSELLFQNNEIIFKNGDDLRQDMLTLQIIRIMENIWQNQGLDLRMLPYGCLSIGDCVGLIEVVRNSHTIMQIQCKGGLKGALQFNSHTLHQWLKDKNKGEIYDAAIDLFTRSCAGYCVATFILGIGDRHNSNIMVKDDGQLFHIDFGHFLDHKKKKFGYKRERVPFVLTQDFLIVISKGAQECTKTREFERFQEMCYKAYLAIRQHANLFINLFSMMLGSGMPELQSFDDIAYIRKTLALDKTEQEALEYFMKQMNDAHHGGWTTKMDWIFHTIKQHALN
T2 sequence (P27986 whole entry partner): as the sequence (P27986 whole entry partner) above

Structure (SMILES) | IC50 (mTOR) [nM] | IC50 (PI3Kalpha (PI3Ka)) [nM] | IC50 (PI3 Kbeta (PI3 Kb)) [nM] | Inhibition values (IC50) PI3Ka (PI3Kalpha (PI3Ka))
CCNC(=O)Nc1ccc(-c2nc3c(c(N4CCOCC4)n2)CN(C(=O)C(C)(C)C)C3)cc1 [Example 100, 1-ethyl-3-(4-(4-morpholino-6-pivaloyl-6,7-dihydro-5H-pyrrolo[3,4-d]pyrimidin-2-yl)phenyl)urea] | 100 to 1000 | 1000 to 10000 | > 10000 | 
CCNC(=O)Nc1ccc(-c2nc3c(c(N4CCOC[C@@H]4C)n2)CN(C(=O)OCC)C3)cc1F [Example 103, (S)-ethyl-2-(4-(3-ethylureido)-3-fluorophenyl)-4-(3-methylmorpholino)-5H-pyrrolo[3,4-d]pyrimidine-6(7H)-carboxylate] | 100 to 1000 |  | > 10000 | D (D >10 μM)
CCOC(=O)N1Cc2nc(-c3ccc(NC(=O)NCCO)c(F)c3)nc(N3CCOC[C@@H]3C)c2C1 [Example 104, (S)-ethyl-2-(3-fluoro-4-(3-(2-hydroxyethyl)ureido)phenyl)-4-(3-methylmorpholino)-5H-pyrrolo[3,4-d]pyrimidine-6(7H)-carboxylate] | 100 to 1000 |  | > 10000 | D (D >10 μM)
CCOC(=O)N1Cc2nc(-c3ccc(NC(=O)NC4CC4)c(F)c3)nc(N3CCOC[C@@H]3C)c2C1 [Example 105, (S)-ethyl 2-(4-(3-cyclopropylureido)-3-fluorophenyl)-4-(3-methylmorpholino)-5H-pyrrolo[3,4-d]pyrimidine-6(7H)-carboxylate] | 100 to 1000 |  | > 10000 | D (D >10 μM)
CCNC(=O)Nc1ncc(-c2nc3c(c(N4CCOC[C@@H]4C)n2)CCN(C)C3)s1 [Example 106, (S)-1-ethyl-3-(5-(7-methyl-4-(3-methylmorpholino)-5,6,7,8-tetrahydropyrido[3,4-d]pyrimidin-2-yl)thiazol-2-yl)urea] | 100 to 1000 |  | > 10000 | D (D >10 μM)
CCNC(=O)Nc1ccc(-c2nc3c(c(N4CCOC[C@@H]4C)n2)CN(C(=O)OCC)CC3)cc1 [Example 107, (S)-ethyl 2-(4-(3-ethylureido)phenyl)-4-(3-methylmorpholino)-7,8-dihydropyrido[4,3-d]pyrimidine-6(5H)-carboxylate] | 100 to 1000 |  | > 10000 | D (D >10 μM)
CCNC(=O)Nc1cc(F)c(-c2nc3c(c(N4CCOC[C@@H]4C)n2)CCN(C)C3)cc1F [Example 108, (S)-1-(2,5-difluoro-4-(7-methyl-4-(3-methylmorpholino)-5,6,7,8-tetrahydropyrido[3,4-d]pyrimidin-2-yl)phenyl)-3-ethylurea] | 100 to 1000 |  | > 10000 | D (D >10 μM)
CCNC(=O)Nc1ccc(-c2nc3c(c(N4CCOC[C@@H]4C)n2)CCN(C)C3)c(F)c1 [Example 110, (S)-1-ethyl-3-(3-fluoro-4-(7-methyl-4-(3-methylmorpholino)-5,6,7,8-tetrahydropyrido[3,4-d]pyrimidin-2-yl)phenyl)urea] | 100 to 1000 |  | > 10000 | D (D >10 μM)
CCNC(=O)Nc1ccc(-c2nc3c(c(N4CCOC[C@@H]4C)n2)CN(C(=O)OCC)C3)c(F)c1 [Example 113, (S)-ethyl-2-(4-(3-ethylureido)-2-fluorophenyl)-4-(3-methylmorpholino)-5H-pyrrolo[3,4-d]pyrimidine-6(7H)-carboxylate] | 100 to 1000 |  | > 10000 | D (D >10 μM)
CCNC(=O)Nc1ccc(-c2nc3c(c(N4CCOC[C@@H]4C)n2)CN(C2CCN(C(=O)OC)CC2)C3)cc1F [Example 122, (S)-methyl 4-(2-(4-(3-ethylureido)-3-fluorophenyl)-4-(3-methylmorpholino)-5H-pyrrolo[3,4-d]pyrimidin-6(7H)-yl)piperidine-1-carboxylate] | 100 to 1000 |  | > 10000 | D (D >10 μM)
CCOC(=O)N1Cc2nc(-c3ccc(NC(=O)NC4CC4)cc3F)nc(N3CCOC[C@@H]3C)c2C1 [Example 131, (S)-ethyl 2-(4-(3-cyclopropylureido)-2-fluorophenyl)-4-(3-methylmorpholino)-5H-pyrrolo[3,4-d]pyrimidine-6(7H)-carboxylate] | 100 to 1000 |  | > 10000 | D (D >10 μM)

Now from value to compound:

IC50 (mTOR) [nM] | IC50 (PI3Kalpha (PI3Ka)) [nM] | IC50 (PI3 Kbeta (PI3 Kb)) [nM] | Inhibition values (IC50) PI3Ka (PI3Kalpha (PI3Ka)) | Structure (SMILES)
< 100 | 1000 to 10000 | 1000 to 10000 |  | CCNC(=O)Nc1ccc(-c2nc3c(c(N4CCOCC4)n2)CCN(C(C)=O)C3)cc1 [Example 97, 1-(4-(7-acetyl-4-morpholino-5,6,7,8-tetrahydropyrido[3,4-d]pyrimidin-2-yl)phenyl)-3-ethylurea]
< 100 | 1000 to 10000 | > 10000 |  | CCNC(=O)Nc1ccc(-c2nc3c(c(N4CCOCC4)n2)CCN(C(=O)C(C)(C)C)C3)cc1 [Example 98, 1-ethyl-3-(4-(4-morpholino-7-pivaloyl-5,6,7,8-tetrahydropyrido[3,4-d]pyrimidin-2-yl)phenyl)urea]
< 100 |  | > 10000 | D (D >10 μM) | CCNC(=O)Nc1ccc(-c2nc3c(c(N4CCOC[C@@H]4C)n2)CCN(C(=O)CO)C3)cc1 [Example 102, (S)-1-ethyl-3-(4-(7-(2-hydroxyacetyl)-4-(3-methylmorpholino)-5,6,7,8-tetrahydropyrido[3,4-d]pyrimidin-2-yl)phenyl)urea]
< 100 |  | > 10000 | D (D >10 μM) | CCOC(=O)N1Cc2nc(-c3ccc(NC(=O)NCCF)cc3)nc(N3CCOC[C@@H]3C)c2C1 [Example 120, (S)-ethyl 2-(4-(3-(2-fluoroethyl)ureido)phenyl)-4-(3-methylmorpholino)-5H-pyrrolo[3,4-d]pyrimidine-6(7H)-carboxylate]
< 100 |  | > 10000 | D (D >10 μM) | CCOC(=O)N1Cc2nc(-c3ccc(NC(=O)Nc4ccncc4)cc3)nc(N3CCOC[C@@H]3C)c2C1 [Example 121, (S)-ethyl 4-(3-methylmorpholino)-2-(4-(3-(pyridin-4-yl)ureido)phenyl)-5H-pyrrolo[3,4-d]pyrimidine-6(7H)-carboxylate]

From patent publication US8785457B2 (Cellzome Limited, priority 2009, dated 2014)
